Data as given in US10392391B2 (Vertex Pharmaceuticals Incorporated, priority 2012, dated 2019).
Read-outs that look alike come from different tables or passages of the source.

Assays:
[1] = target: ATR kinase (full-length ATR) (Homo sapiens (Human), UniProt Q13535); assay: ATR inhibition assay (radioactive-phosphate incorporation); type: biochemical
Outline: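 Radiometric 33P incorporation by 5 nM full-length ATR into 800 μM target peptide with 10 μM [γ-33P]ATP, in 50 mM Tris/HCl pH 7.5, 10 mM MgCl2, 1 mM DTT, 7% DMSO, 25° C. Compound pre-incubated 10 minutes; reaction stopped after 24 hours, captured on phosphocellulose. Ki(app) from non-linear regression of initial rates.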

[2] = target: ATR kinase, in the presence of partner proteins ATRIP, CLK2 and TopBP1 (Homo sapiens (Human), UniProt Q13535); assay: ATR-complex inhibition assay (radioactive-phosphate incorporation); type: biochemical; details: Ki(app); 4 nM full-length ATR, 40 nM ATRIP, 40 nM CLK2, 600 nM TopBP1; 10 μM ATP; 25° C.
Protocol: Compounds were screened for their ability to inhibit ATR kinase, in the presence of partner proteins ATRIP, CLK2 and TopBP1, using a radioactive-phosphate incorporation assay. Assays were carried out in a mixture of 50 mM Tris/HCl (pH 7.5), 10 mM MgCl2 and 1 mM DTT. Final substrate concentrations were 10 μM [g-33P]ATP (3.5 μCi 33P ATP/nmol ATP, Perkin Elmer, Massachusetts, USA) and 800 μM target peptide ([…]) (SEQ ID NO: 1); Isca Biochemicals, Cambridgeshire, UK).
Assays were carried out at 25° C. in the presence of 4 nM full-length ATR, 40 nM full-length ATRIP, 40 nM full-length CLK2 and 600 nM TopBP1 (A891-S1105). An enzyme stock buffer solution was prepared containing all of the reagents listed above, with the exception of target peptide, ATP and the test compound of interest. This enzyme stock was pre-incubated for 30 minutes at 25° C. 8.5 μL of the enzyme stock solution was placed in a 96-well plate followed by addition of 5 μl of target peptide and 2 μL of DMSO stock containing serial dilutions of the test compound (typically starting from a final concentration of 1.5 μM with 2.5-fold serial dilutions) in duplicate (final DMSO concentration 7%). The plate was pre-incubated for 10 minutes at 25° C. and the reaction initiated by addition of 15 μL [g-33P]ATP (final concentration 10 μM).
The reaction was stopped after […] by the addition of 30 μL 0.3 M phosphoric acid containing 2 mM ATP. A phosphocellulose filter 96-well plate (Multiscreen HTS MAPHNOB50, Merck-Millipore, Massachusetts, USA) was pretreated with 100 μL 0.1 M phosphoric acid prior to the addition of 45 μL of the stopped assay mixture. The plate was washed with 5×200 μL 0.1 M phosphoric acid. After drying, 50 μL Optiphase ‘SuperMix’ liquid scintillation cocktail (Perkin Elmer, Massachusetts, USA) was added to the well prior to scintillation counting (Wallac 1450 Microbeta Liquid Scintillation Counter, Perkin Elmer, Massachusetts, USA).
After removing mean background values for all of the data points, Ki(app) data were calculated from non-linear regression analysis of the initial rate data using the Prism software package (GraphPad Prism version 6.0c for Macintosh, GraphPad Software Inc., San Diego, USA).
Compounds with a Cisplatin sensitization value of <0.02 μM are marked with “+++.” Compounds with a Ki value >0.02 μM but <0.2 μM are marked with “++.” Compounds with a Ki value >0.2 μM but <5 μM are marked with “+.”

[3] = system: HCT116 colorectal cancer cells; assay: Cisplatin sensitization assay, 96 h cell viability (MTS); type: cell-based; details: 96 h MTS, concentration of compound required to reduce the IC50 of Cisplatin
Protocol: Compounds can be screened for their ability to sensitize HCT116 colorectal cancer cells to Cisplatin using a 96 h cell viability (MTS) assay. […] Compounds and Cisplatin are then both added simultaneously to the cell media in 2-fold serial dilutions from a top final concentration of 10 μM as a full matrix of concentrations in a final cell volume of 200 μl, and the cells are then incubated at 37° C. in 5% CO2. After 96 h, 40 μl of MTS reagent (Promega G358a) is added to each well and the cells are incubated for 1 h at 37° C. in 5% CO2.
Compounds with a Cisplatin sensitization value of <0.02 μM are marked with “+++.” Compounds with a Cisplatin sensitization value >0.02 μM but <0.2 μM are marked with “++.” Compounds with a Cisplatin sensitization value >0.2 μM but <5 μM are marked with “+.”

[4] = Ki(app), 5 nM full-length ATR, 10 μM ATP, 25° C.

Chain of ATR kinase, in the presence of partner proteins ATRIP, CLK2 and TopBP1 (Q13535 whole entry): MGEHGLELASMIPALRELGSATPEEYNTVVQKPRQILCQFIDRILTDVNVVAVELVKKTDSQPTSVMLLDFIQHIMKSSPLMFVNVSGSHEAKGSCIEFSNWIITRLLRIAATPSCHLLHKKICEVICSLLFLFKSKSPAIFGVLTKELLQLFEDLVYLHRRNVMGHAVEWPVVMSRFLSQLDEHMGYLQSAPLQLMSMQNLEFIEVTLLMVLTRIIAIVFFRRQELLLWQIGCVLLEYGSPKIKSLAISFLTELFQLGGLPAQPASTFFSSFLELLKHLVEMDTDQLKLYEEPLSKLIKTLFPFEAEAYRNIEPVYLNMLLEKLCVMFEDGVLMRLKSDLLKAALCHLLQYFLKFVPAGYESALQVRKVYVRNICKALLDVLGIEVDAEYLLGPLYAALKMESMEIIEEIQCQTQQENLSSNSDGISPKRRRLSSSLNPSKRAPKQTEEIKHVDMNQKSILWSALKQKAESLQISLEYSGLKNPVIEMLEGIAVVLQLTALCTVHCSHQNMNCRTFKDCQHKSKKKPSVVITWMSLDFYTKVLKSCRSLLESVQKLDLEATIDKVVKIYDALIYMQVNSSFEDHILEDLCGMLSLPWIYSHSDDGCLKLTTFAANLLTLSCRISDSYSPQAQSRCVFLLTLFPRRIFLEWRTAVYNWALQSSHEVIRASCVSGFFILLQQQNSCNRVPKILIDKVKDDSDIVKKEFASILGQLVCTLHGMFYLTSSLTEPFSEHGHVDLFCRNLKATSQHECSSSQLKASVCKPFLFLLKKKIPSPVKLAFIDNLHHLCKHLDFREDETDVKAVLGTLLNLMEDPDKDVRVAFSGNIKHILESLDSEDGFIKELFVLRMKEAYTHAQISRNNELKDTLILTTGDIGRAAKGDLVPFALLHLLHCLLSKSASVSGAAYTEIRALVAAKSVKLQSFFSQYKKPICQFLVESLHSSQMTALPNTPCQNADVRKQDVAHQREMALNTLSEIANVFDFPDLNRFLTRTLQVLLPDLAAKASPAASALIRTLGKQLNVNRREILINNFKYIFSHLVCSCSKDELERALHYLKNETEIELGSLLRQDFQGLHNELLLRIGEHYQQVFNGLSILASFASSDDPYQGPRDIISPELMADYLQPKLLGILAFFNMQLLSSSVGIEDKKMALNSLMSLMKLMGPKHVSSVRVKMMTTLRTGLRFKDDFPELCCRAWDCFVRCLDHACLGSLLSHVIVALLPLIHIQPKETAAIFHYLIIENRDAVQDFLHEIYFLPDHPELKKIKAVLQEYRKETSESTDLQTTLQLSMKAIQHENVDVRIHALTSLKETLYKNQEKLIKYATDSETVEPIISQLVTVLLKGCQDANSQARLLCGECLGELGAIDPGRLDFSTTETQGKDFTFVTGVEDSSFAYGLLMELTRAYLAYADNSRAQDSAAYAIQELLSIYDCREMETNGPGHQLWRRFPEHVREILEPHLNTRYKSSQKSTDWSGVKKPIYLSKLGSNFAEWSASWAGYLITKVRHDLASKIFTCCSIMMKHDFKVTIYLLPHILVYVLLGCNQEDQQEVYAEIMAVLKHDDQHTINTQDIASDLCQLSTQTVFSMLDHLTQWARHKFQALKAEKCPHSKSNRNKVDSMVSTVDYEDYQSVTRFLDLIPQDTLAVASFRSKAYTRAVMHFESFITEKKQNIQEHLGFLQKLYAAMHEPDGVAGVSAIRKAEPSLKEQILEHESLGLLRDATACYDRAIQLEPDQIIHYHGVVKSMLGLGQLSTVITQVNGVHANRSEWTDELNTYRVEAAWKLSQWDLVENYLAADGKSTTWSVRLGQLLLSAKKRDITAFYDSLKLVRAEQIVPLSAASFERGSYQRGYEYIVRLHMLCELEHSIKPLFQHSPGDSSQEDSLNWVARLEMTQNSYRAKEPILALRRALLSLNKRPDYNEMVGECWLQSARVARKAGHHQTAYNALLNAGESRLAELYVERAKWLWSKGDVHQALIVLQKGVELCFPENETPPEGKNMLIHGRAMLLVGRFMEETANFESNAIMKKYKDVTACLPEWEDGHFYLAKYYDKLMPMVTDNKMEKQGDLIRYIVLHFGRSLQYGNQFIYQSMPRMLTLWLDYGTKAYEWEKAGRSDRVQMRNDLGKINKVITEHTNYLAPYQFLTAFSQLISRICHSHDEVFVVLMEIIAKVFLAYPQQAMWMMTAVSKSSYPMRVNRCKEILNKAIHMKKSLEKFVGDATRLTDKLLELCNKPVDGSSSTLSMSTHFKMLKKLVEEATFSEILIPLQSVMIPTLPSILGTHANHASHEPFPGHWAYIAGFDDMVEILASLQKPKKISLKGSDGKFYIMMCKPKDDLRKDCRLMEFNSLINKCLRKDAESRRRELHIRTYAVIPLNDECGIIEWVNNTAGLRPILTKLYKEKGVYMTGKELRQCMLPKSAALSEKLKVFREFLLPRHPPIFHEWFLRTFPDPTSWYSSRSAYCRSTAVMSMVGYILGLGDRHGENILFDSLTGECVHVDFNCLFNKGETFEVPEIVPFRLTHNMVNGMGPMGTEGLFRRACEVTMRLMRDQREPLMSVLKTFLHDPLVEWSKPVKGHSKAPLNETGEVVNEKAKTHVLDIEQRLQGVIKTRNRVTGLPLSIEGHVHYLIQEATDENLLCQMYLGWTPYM
Chain of ATR kinase, in the presence of partner proteins ATRIP, CLK2 and TopBP1 (Q8WXE1 whole entry partner): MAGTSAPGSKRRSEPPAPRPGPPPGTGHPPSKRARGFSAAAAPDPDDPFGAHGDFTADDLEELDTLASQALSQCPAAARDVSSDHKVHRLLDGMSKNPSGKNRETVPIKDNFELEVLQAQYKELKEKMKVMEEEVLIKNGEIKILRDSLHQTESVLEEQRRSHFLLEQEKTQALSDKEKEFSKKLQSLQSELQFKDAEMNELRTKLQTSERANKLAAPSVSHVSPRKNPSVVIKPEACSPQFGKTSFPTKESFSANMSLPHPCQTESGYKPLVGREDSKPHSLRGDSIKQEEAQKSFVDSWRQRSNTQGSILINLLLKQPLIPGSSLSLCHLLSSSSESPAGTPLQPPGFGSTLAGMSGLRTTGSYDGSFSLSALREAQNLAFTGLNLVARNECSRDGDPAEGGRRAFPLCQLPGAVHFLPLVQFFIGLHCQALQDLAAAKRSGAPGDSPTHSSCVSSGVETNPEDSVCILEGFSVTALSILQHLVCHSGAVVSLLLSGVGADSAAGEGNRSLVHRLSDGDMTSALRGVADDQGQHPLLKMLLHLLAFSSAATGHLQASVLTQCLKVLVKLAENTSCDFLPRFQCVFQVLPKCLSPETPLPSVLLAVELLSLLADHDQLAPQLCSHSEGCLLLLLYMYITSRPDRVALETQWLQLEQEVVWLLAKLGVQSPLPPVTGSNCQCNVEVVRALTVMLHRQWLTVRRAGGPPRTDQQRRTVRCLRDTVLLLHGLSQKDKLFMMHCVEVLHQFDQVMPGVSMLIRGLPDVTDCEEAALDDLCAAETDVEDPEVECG
Chain of ATR kinase (full-length ATR) (Q13535 whole entry): as the sequence (Q13535 whole entry) above

Row | Ki [1, 4] [nM] | Ki [2] [nM] | Ki [1] [nM] | SMILES | Cisplatin Sensitization Assay [3]
1 | 10 to 1000 | < 20 |  | CN1CCN(C(=O)c2ccc(-c3ccncc3NC(=O)c3c(N)nn4cc(F)cnc34)cc2)CC1 [I-C-25, 2-amino-6-fluoro-N-(4-(4-(4-methylpiperazine-1-carbonyl)phenyl)pyridin-3-yl)pyrazolo[1,5-a]pyrimidine-3-carboxamide] | 
2 | 10 to 1000 | < 20 |  | Cc1nnccc1-c1ccncc1NC(=O)c1c(N)nn2cc(F)cnc12 [I-C-31, 2-amino-6-fluoro-N-(4-(3-methylpyridazin-4-yl)pyridin-3-yl)pyrazolo[1,5-a]pyrimidine-3-carboxamide] | 
3 | 10 to 1000 | < 20 |  | CN1CCN(C(=O)c2ccc(-c3c(F)cncc3NC(=O)c3c(N)nn4cc(F)cnc34)cc2)CC1 [I-C-43, 2-amino-6-fluoro-N-(5-fluoro-4-(4-(4-methylpiperazine-1-carbonyl)phenyl)pyridin-3-yl)pyrazolo[1,5-a]pyrimidine-3-carboxamide] | 
4 | 10 to 1000 | < 20 |  | Cn1cncc1-c1c(F)cncc1NC(=O)c1c(N)nn2cc(F)cnc12 [I-C-79, 2-amino-6-fluoro-N-(5-fluoro-4-(1-methyl-1H-imidazol-5-yl)pyridin-3-yl)pyrazolo[1,5-a]pyrimidine-3-carboxamide] | 
5 | 10 to 1000 | < 20 |  | CN1CCN(C(=O)C2CCN(c3c(F)cncc3NC(=O)c3c(N)nn4cc(F)cnc34)CC2)CC1 [I-G-4, 2-amino-6-fluoro-N-(5-fluoro-4-(4-(4-methylpiperazine-1-carbonyl)piperidin-1-yl)pyridin-3-yl)pyrazolo[1,5-a]pyrimidine-3-carboxamide] | 
6 |  | < 20 | 10 to 1000 | Nc1nn2cc(F)cnc2c1C(=O)Nc1cncc(F)c1N1CCC(C(=O)N2CCN3CCC2CC3)CC1 [I-G-7, N-(4-(4-(1,4-diazabicyclo[3.2.2]nonane-4-carbonyl)piperidin-1-yl)-5-fluoropyridin-3-yl)-2-amino-6-fluoropyrazolo[1,5-a]pyrimidine-3-carboxamide] | 
7 | 10 to 1000 | < 20 |  | Nc1nn2cc(F)cnc2c1C(=O)Nc1cncc(F)c1N1CCC(C(=O)N2CCNCC2)CC1 [I-G-12, 2-amino-6-fluoro-N-(5-fluoro-4-(4-(piperazine-1-carbonyl)piperidin-1-yl)pyridin-3-yl)pyrazolo[1,5-a]pyrimidine-3-carboxamide] | 
8 | 1000 to 5000 |  |  | CNCCCN(C)C(=O)C1CCN(c2c(F)cncc2NC(=O)c2c(N)nn3cc(F)cnc23)CC1 [I-G-17] | + (Compounds with a Cisplatin sensitization value >0.2 μM but <5 μM are marked with “+.”)
9 | 10 to 1000 | < 20 |  | COC1CN(C(=O)C2CCN(c3c(F)cncc3NC(=O)c3c(N)nn4cc(F)cnc34)CC2)C1 [I-G-21, 2-amino-6-fluoro-N-(5-fluoro-4-(4-(3-methoxyazetidine-1-carbonyl)piperidin-1-yl)pyridin-3-yl)pyrazolo[1,5-a]pyrimidine-3-carboxamide] | 
10 | 10 to 1000 | < 20 |  | Nc1nn2cc(F)cnc2c1C(=O)Nc1cncc(F)c1N1CCC(C(=O)N2CCN(C3COC3)CC2)CC1 [I-G-32, 2-amino-6-fluoro-N-[5-fluoro-4-[4-[4-(oxetan-3-yl)piperazine-1-carbonyl]-1-piperidyl]-3-pyridyl]pyrazolo[1,5-a]pyrimidine-3-carboxamide] | 
11 | 10 to 1000 | < 20 |  | Nc1nn2cc(F)cnc2c1C(=O)Nc1cnccc1N1CCN(C2COC2)CC1 [I-N-1, 2-amino-6-fluoro-N-(4-(4-(oxetan-3-yl)piperazin-1-yl)pyridin-3-yl)pyrazolo[1,5-a]pyrimidine-3-carboxamide] | 
12 | 10 to 1000 | < 20 |  | Nc1nn2cc(F)cnc2c1C(=O)Nc1cncc(F)c1N1CCN(C2COC2)CC1 [I-N-13, 2-amino-6-fluoro-N-(5-fluoro-4-(4-(oxetan-3-yl)piperazin-1-yl)pyridin-3-yl)pyrazolo[1,5-a]pyrimidine-3-carboxamide] | 
13 | 10 to 1000 | < 20 |  | Nc1nn2cc(Cl)cnc2c1C(=O)Nc1cnccc1N1CCN(C2COC2)CC1 [I-N-58, 2-amino-6-chloro-N-(4-(4-(oxetan-3-yl)piperazin-1-yl)pyridin-3-yl)pyrazolo[1,5-a]pyrimidine-3-carboxamide] | 
14 | 10 to 1000 | < 20 |  | Nc1nn2cc(F)cnc2c1C(=O)Nc1cncc(F)c1N1CCNCC1 [I-N-118, 2-amino-6-fluoro-N-(5-fluoro-4-(piperazin-1-yl)pyridin-3-yl)pyrazolo[1,5-a]pyrimidine-3-carboxamide] | 
15 | 10 to 1000 | < 20 |  | CN1CCN(S(=O)(=O)C2CCN(c3c(F)cncc3NC(=O)c3c(N)nn4cc(F)cnc34)CC2)CC1 [I-N-166, 2-amino-6-fluoro-N-(5-fluoro-4-(4-((4-methylpiperazin-1-yl)sulfonyl)piperidin-1-yl)pyridin-3-yl)pyrazolo[1,5-a]pyrimidine-3-carboxamide] | 
16 | 10 to 1000 | < 20 |  | Nc1nn2cc(F)cnc2c1C(=O)Nc1cncc(F)c1N1CCN2C(=O)CC[C@@H]2C1 [I-N-186, (R)-2-amino-6-fluoro-N-(5-fluoro-4-(6-oxohexahydropyrrolo[1,2-a]pyrazin-2(1H)-yl)pyridin-3-yl)pyrazolo[1,5-a]pyrimidine-3-carboxamide] | 
17 | 10 to 1000 | < 20 |  | CC(=O)N1CCN(c2c(F)cncc2NC(=O)c2c(N)nn3cc(F)cnc23)CC1 [I-N-275, N-(4-(4-acetylpiperazin-1-yl)-5-fluoropyridin-3-yl)-2-amino-6-fluoropyrazolo[1,5-a]pyrimidine-3-carboxamide] | 
